Assay results taken from US5962502A, “Polyamidic acid derivatives with antigastrin activity, a method for their preparation, and their pharmaceutical use” (priority 1993, dated 1999).
“And” between values parts separate entries of the source, which are not always exact repeats. Equal entries are not always repeated.

Assays:
mouse = experiment: Black and White Box test in the mouse (anxiolytic activity); assay type: in vivo; settings: for LIGHT TIME TOTAL TIME / LIGHT-DARK MOVEMENTS / MOV. DARK % TOTAL MOV. / TOTAL MOVEMENTS: 5 minutes
Procedure: It has recently been postulated that the central CCK-B receptor has an important role in anxiety. This is in accordance with studies also carried out in man, which have shown that the central CCK-B mechanisms have an important function in the mediation of panic attacks [Bradwejn, H. et al; J. Psychopharmacology 6 (1992), 345]. […] This experimental model, which was carried out according to Costall et al [Pharm. Biochem. Behav. 32 (1989), 777-785], used a box with dimensions of 45×21×21(h) cm divided into 2 compartments which communicated with one another through a 13×5 cm hole. The smaller compartment (1/3 of the total area) had black walls, whereas the larger had transparent walls and was illuminated by a lamp which was placed 20 cm above the box and supplied light at 20W. Under the floor there was an activity meter which recorded the movements performed by the animal in the individual compartments. The experiment was started by placing the animal in the centre of the illuminated box; as well as movements, the time which the animal spent in the dark and in the light areas and the number of movements between the 2 compartments were then recorded for 5 minutes. A control animal generally preferred to stay in the dark compartment where it felt better protected from an unusual environmental situation which put it in a state of anxiety. In this experimental model, a compound having anxiolytic activity decreased the % of movements into the dark in comparison with the total movements, increased the movements between the two light-dark compartments, and increased the % of time spent in the light in comparison with the total time.
The results obtained are shown in Table 7, where the activities obtained with compounds 9, 21 and 51 are given, tested in comparison with diazepam.

[1] = target: T1, gastrin receptors or type-B cholecystokinin (CCK-B) receptors (Oryctolagus cuniculus, UniProt P46627); experiment: Inhibition of the gastrin-induced increase of cytosolic calcium in rabbit gastric mucous-membrane cells (Fura 2); assay type: cell-based; settings: for Ratio IC50 Binding cortex / IC50 (gastric mucous cells): binding values taken from Table 3; for IC50, inhibition of the increase of cytosolic calcium: rabbit gastric mucous cells enriched in parietal cells, gastrin 5×10^-8
T1 construct: Rabbit gastric mucous-membrane cells were prepared by conventional techniques; endogenous in cells; host or cells: freshly isolated rabbit gastric mucosal cells, enriched by elutriation to about 70% parietal cells
T1 sequence (P46627 1-452): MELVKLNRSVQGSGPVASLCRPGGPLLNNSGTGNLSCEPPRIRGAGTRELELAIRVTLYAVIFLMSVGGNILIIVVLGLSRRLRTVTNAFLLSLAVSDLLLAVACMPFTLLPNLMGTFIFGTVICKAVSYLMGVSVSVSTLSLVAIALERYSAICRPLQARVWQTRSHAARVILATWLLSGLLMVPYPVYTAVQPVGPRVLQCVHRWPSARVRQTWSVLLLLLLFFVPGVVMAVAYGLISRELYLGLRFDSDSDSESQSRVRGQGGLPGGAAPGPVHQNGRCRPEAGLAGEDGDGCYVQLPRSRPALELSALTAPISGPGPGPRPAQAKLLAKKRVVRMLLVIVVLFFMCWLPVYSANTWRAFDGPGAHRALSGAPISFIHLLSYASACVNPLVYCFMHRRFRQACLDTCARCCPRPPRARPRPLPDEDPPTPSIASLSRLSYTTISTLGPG
Excerpt: The parietal cells of the gastric mucous membrane are responsible for the secretion of HCl. They have specific membrane receptors which can be activated by gastrin and which have been defined as gastrin receptors or type-B cholecystokinin (CCK-B) receptors. Since it has been observed that the activation of the CCK-B receptors by gastrin leads to an increase in the cytosolic levels of calcium ions, a technique involving the measurement of the increase in intracellular calcium induced by gastrin in the presence and in the absence of the compounds of the invention was used as an index of the antigastrin activity of the compounds. Rabbit gastric mucous-membrane cells were prepared by conventional techniques with the use of collagenase and pronase as digestive enzymes. The cellular preparation obtained by the enzymatic digestion was composed of parietal cells, zymogen cells and mucous-membrane cells. […] The cells were then washed and resuspended in a saline solution buffered with HEPES containing, in mM: […] Each measurement was carried out on cells in suspension (0.8×10^6 /ml) at a thermostatically-controlled temperature of 37° C. and with constant magnetic stirring. The fluorescence was recorded with the use of a spectrofluorometer. The operative wavelengths were 340/380 nm for excitation and 505 nm for emission. […] Biol. Chem. 260 (1985), 3440]. […] The results thus obtained for some compounds of the invention are given in Table 4, which also gives an index derived from the ratio between the peripheral antigastrin activity just described and the displacement activity found in the test on binding to the guinea-pig cortex receptors described above.

[2] = tested on: acid secretion induced by pentagastrin; experiment: Acid secretion induced by pentagastrin in the anaesthetized rat; assay type: in vivo; settings: iv, 1 h, I.V. bolus, pentagastrin 30 mcg/kg/h, read-out: Activity (ID50), inhibition of the acid secretion induced by pentagastrin
Procedure: The activity of the compounds of the invention against gastric secretion performed by means of a mechanism with an antigastrin effect, was examined in vivo in anaesthetized rats with the use of male animals weighing about 200 g. Gastric secretion was stimulated with pentagastrin and Lai's method [Gut 5, (1964), 327-341 ] was used, with slight modification.
After tracheotomy, the oesophagus and duodenum were cannulated. A tepid solution (37° C.) of 0.25 mM NaOH was perfused and was passed through the stomach by means of a peristaltic pump at a constant flow-rate of 1 ml/minute. After stabilization for 20 minutes, the stimulant, dissolved in a physiological solution, was perfused for 120 minutes at a dose of 30 mcg/kg/h, in a volume of 0.95 ml/hour. After perfusion for 60 minutes (the basal stimulation), the product under test was administered intravenously (I.V.) as a bolus and perfusion of the stimulant was continued for a further 60 minutes. The acid secretion was recorded continuously as a function of time.
The activity of the product was evaluated as the percentage reduction of secreted acidity after the administration of the product, in comparison with the basal acidity measured during the first 60 minutes of collection in the presence of pentagastrin alone.
The antagonistic compounds tested were administered in various doses so that an ID50, that is, the dose (in mg/kg I.V.) which could inhibit the effect of pentagastrin by 50%, could be calculated.

central CCK-B receptor = target: T2, central CCK-B receptor (Cavia porcellus, UniProt H0VZC5); experiment: Inhibition of the binding of [3-H][N-methyl-N-leucine]CCK-8 to guinea-pig cortical membranes; settings: guinea-pig cortical membranes, 150 minutes at 25° C.
T2 construct: Cerebral cortices of male white guinea-pigs were thus used; from tissue; host or cells: cerebral cortex membranes of male white guinea-pigs
T2 sequence (H0VZC5 1-426): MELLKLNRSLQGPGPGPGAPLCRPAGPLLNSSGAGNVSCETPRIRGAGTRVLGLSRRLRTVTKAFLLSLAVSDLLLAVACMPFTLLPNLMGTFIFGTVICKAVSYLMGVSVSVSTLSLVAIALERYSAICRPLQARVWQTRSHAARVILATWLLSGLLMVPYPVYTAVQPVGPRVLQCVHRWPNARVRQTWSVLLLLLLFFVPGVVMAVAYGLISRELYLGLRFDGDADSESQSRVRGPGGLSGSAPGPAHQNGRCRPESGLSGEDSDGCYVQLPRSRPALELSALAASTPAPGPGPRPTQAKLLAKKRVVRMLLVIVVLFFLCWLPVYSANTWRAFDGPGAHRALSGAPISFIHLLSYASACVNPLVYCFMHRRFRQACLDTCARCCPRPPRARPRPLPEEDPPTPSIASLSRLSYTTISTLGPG
Procedure: The ability of the compounds of the invention to interact with the central CCK-B receptor was evaluated with the use of non-sulphated [3-H] […] 225 (3) (1990), 1278-1286].
Cerebral cortices of male white guinea-pigs were thus used, according to the method mentioned above, so as to obtain a membrane content corresponding to about 300 mcg of proteins/ml. The membranes were incubated together with the radioactive tracer and the compounds under test for 150 minutes at 25° C. After the supernatant had been discarded, the radioactivity associated with the pellet was determined with a liquid scintillator. The specific binding was determined as the difference between the binding in the absence and in the presence of 5.10^-6 M CCK-8.

Compound: CN(C(=O)CC[C@@H](NC(=O)c1cc(Cl)cc(Cl)c1)C(=O)N1CCC2(CCCC2)CC1)c1ccccc1C(=O)O [Compound 51]
- EFF. % VS CONTROL (LIGHT TIME TOTAL TIME) (mouse; 0.1 mg/kg IP): 12%
- EFF. % VS CONTROL (LIGHT-DARK MOVEMENTS) (mouse; 0.1 mg/kg IP): 19%
- EFF. % VS CONTROL (MOV. DARK % TOTAL MOV.) (mouse; 0.1 mg/kg IP): -12%
- LIGHT TIME TOTAL TIME (mouse; 0.1 mg/kg IP): 27.0%
- LIGHT-DARK MOVEMENTS (mouse; 0.1 mg/kg IP): 17.6
- MOV. DARK % TOTAL MOV. (mouse; 0.1 mg/kg IP): 61%
- TOTAL MOVEMENTS (mouse; 0.1 mg/kg IP): 472
- EFF. % VS CONTROL (LIGHT TIME TOTAL TIME) (mouse; 1.0 mg/kg IP): 48%
- EFF. % VS CONTROL (LIGHT-DARK MOVEMENTS) (mouse; 1.0 mg/kg IP): 34%
- EFF. % VS CONTROL (MOV. DARK % TOTAL MOV.) (mouse; 1.0 mg/kg IP): -14%
- LIGHT TIME TOTAL TIME (mouse; 1.0 mg/kg IP): 35.6%
- LIGHT-DARK MOVEMENTS (mouse; 1.0 mg/kg IP): 19.8
- MOV. DARK % TOTAL MOV. (mouse; 1.0 mg/kg IP): 59%
- TOTAL MOVEMENTS (mouse; 1.0 mg/kg IP): 484
- EFF. % VS CONTROL (LIGHT TIME TOTAL TIME) (mouse; 10.0 mg/kg IP): 16%
- EFF. % VS CONTROL (LIGHT-DARK MOVEMENTS) (mouse; 10.0 mg/kg IP): 37%
- EFF. % VS CONTROL (MOV. DARK % TOTAL MOV.) (mouse; 10.0 mg/kg IP): -10%
- LIGHT TIME TOTAL TIME (mouse; 10.0 mg/kg IP): 27.8%
- LIGHT-DARK MOVEMENTS (mouse; 10.0 mg/kg IP): 20.3
- MOV. DARK % TOTAL MOV. (mouse; 10.0 mg/kg IP): 62%
- TOTAL MOVEMENTS (mouse; 10.0 mg/kg IP): 436
- anxiolytic activity, result in words (mouse; Black and White Box test, IP): anxiolytic activity without sedative activity
- increase in the number of light-dark movements in comparison with the controls (mouse; summary over doses): 20-30%
- Ratio IC50 Binding cortex / IC50 (gastric mucous cells) [1]: 2.4
- IC50, inhibition of the increase of cytosolic calcium [1]: 50 nM
- ED50 [2]: 9 mg/kg and 15.7 µmol/kg
- IC50 (central CCK-B receptor): 120 nM

Compound: O=C(N[C@H](CCC(=O)N1CCCC(C(=O)O)C1)C(=O)N1CCC2(CCCC2)CC1)c1cc(Cl)cc(Cl)c1 (stereo partly drawn) [Compound 58, (R)-1-(piperidine-3-carboxy)-1-oxo-5-(8-azaspiro[4.5]decan-8-yl)-4-(3,5-dichloro-benzoylamino)-5-oxopentanoic acid]
- Ratio IC50 Binding cortex / IC50 (gastric mucous cells) [1]: 1.9
- IC50, inhibition of the increase of cytosolic calcium [1]: 330 nM
- ED50 [2]: 10.1 mg/kg and 18.3 µmol/kg
- IC50 (central CCK-B receptor): 640 nM

Compound: CN(Cc1ccccc1)C(=O)[C@@H](CCC(=O)O)NC(=O)CC[C@@H](NC(=O)c1cc(Cl)cc(Cl)c1)C(=O)N1CCC2(CCCC2)CC1 [Compound 38]
- Ratio IC50 Binding cortex / IC50 (gastric mucous cells) [1]: 6.0
- IC50, inhibition of the increase of cytosolic calcium [1]: 30 nM
- ED50 [2]: 7 mg/kg and 10.4 µmol/kg
- IC50 (central CCK-B receptor): 180 nM
